The values that follow are results of earlier work, collected in US20090286795A1, “USE OF VASCULAR ENDOTHELIAL GROWTH FACTOR RECEPTOR INHIBITORS FOR THE TREATMENT OF CANCER” (priority 2006, published 2009).

For the data set the following is noted: studies in humans.

For the compound `Clc1ccc(Nc2nnc(Cc3ccncc3)c3ccccc23)cc1` [PTK787, 1-(4-chloroanilino)-4-(4-pyridylmethyl)phthalazine], the tolerability in humans result is reported as “well tolerated” and the tumor vascular permeability entry is given as “reduce tumor vascular permeability”.
